Measured values: US4522752A, “Retro-inverso analogues of the bradykinin potentiating peptide BPP5a and methods for their preparation” (E.N.I. Ente Nazionale Idrocarburi, priority 1983, dated 1985)
Read-outs that look alike come from different tables or passages of the source. Where a SMILES comes first, the peptide text is derived from it. [ ]: non-standard residue; d: D form. The star is where a group is joined. Hyp = O=C(O)[C@@H]1C[C@@H](O)CN1; pGlu = O=C1CC[C@@H](C(=O)O)N1; Bn = c1ccc(C*)cc1

Legend:
[1] = molecular target: T1, angiotensin conversion enzyme (Oryctolagus cuniculus, UniProt P12822); assay: Inhibition of the angiotensin conversion enzyme in vitro (method of Cushman and Cheung); type: biochemical; conditions: enzyme isolated from rabbit lungs, read-out: I50
T1 construct: the enzyme isolated from rabbit lungs; from tissue; host or cells: rabbit lung
T1 sequence (P12822 34-1310): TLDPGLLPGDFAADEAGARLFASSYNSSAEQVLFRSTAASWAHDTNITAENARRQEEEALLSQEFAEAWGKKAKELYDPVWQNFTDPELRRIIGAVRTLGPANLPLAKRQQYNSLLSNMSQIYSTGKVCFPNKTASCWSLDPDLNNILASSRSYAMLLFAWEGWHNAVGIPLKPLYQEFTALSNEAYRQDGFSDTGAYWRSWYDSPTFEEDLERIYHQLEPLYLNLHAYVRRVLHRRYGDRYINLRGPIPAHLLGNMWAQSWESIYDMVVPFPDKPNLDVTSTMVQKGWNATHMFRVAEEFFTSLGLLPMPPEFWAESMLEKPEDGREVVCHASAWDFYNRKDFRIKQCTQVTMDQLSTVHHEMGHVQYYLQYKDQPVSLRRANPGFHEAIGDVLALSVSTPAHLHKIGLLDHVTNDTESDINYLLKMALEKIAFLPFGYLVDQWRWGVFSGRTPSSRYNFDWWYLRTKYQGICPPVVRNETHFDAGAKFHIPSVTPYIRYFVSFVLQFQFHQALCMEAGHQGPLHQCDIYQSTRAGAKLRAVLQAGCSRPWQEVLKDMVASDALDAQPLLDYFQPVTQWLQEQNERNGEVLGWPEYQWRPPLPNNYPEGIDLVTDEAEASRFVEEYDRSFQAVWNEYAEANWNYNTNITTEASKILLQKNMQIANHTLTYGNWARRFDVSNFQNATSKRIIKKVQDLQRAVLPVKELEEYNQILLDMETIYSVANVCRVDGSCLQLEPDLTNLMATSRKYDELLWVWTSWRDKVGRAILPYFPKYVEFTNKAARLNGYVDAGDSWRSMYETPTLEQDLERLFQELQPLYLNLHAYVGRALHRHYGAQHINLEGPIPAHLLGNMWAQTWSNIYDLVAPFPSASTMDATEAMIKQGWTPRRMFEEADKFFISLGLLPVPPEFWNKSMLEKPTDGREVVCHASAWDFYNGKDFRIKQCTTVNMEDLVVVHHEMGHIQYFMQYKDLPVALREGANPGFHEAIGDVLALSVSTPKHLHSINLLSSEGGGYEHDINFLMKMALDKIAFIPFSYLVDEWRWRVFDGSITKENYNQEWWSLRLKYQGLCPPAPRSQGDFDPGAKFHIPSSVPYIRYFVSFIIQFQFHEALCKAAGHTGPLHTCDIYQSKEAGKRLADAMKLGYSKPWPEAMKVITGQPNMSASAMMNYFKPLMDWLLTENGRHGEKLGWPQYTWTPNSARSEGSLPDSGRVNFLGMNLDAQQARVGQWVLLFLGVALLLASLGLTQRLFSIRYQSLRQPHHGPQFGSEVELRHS
Description: The inhibition of the angiotensin conversion enzyme by the compounds of general formula (I) is measured in vitro by the enzyme isolated from rabbit lungs by the method of Cushman and Cheung [Biochem. Pharmacol., 20, 1637 (1971)].

[2] = molecular target: T1, angiotensin conversion enzyme; conditions: literature value given in Table 1; read-out: I50 (lit.); cited from earlier work
[3] = oral administration; needs intravenous administration; cited from earlier work

In the case of C[C@H](NC(=O)[C@H](Cc1ccccc1)NC(=O)[C@H](CCCCN)NC(=O)[C@@H]1CCC(=O)N1)C(=O)N1C[C@H](OCc2ccccc2)C[C@H]1C(=O)O [Glp--Lys--Phe--Ala--Hyp(OBz), pyroglutamyl-lysyl-phenylalanyl-alanyl-(4-benzyloxy)-proline] ([pGlu]KFA[Hyp](Bn)-OH), the IC50 [1] is reported as 0.11 µM.
In the case of C[C@H](NC(=O)[C@H](Cc1ccccc1)NC(=O)[C@H](CCCCN)NC(=O)[C@@H]1CCC(=O)N1)C(=O)N1CCC[C@H]1C(=O)O [Glp--Lys--Phe--Ala--Pro] ([pGlu]KFAP-OH), the IC50 [1] is listed as 0.13 µM and the IC50 [2] is listed as 0.07 µM.
For C[C@H](NC(=O)C(Cc1ccccc1)C(=O)N[C@H](CCCCN)C(=O)NC1CCC(=O)N1)C(=O)N1CCC[C@H]1C(=O)O (stereo partly drawn) [gGlp--D-Lys--mPhe--Ala--Pro, gem-pyroglutamyl-D-lysyl-(R,S)-malonyl-(2-benzyl)-alanyl-proline], the IC50 [1] was 85 µM.
For CC[C@H](C)[C@H](NC(=O)[C@H](CCC(N)=O)NC(=O)[C@@H]1CCCN1C(=O)[C@H](CCCNC(=N)N)NC(=O)[C@@H]1CCCN1C(=O)[C@H](Cc1c[nH]c2ccccc12)NC(=O)[C@@H]1CCC(=O)N1)C(=O)N1CCC[C@H]1C(=O)N1CCC[C@H]1C(=O)O [teprotide], the oral activity [3] is listed as “inactive orally”.
